# Data published in patent US20210251228A1, “METHODS FOR REPELLING DROSOPHILA SPECIES USING 2-PENTYLFURAN” (The United States of America, as represented by the …, priority 2020, published 2021).
# Structures can show the parent of a compound that is named as a salt.
# System: Drosophila suzukii antennae
# Test: Coupled GC-EAD of bread dough headspace volatiles on SWD antennae
# Conditions: adult female SWD antennae; adsorbent extract of bread dough; authentic standards 10 ng/μl
# Description: Adsorbent Sampling from Bread Dough: The bread dough bait consisted of whole-wheat flour (17.25 g), sugar (2 g), dry active bread yeast (0.325 g), apple cider vinegar (1 ml), and water (25 ml) (Cha, D. H., et al., J. Econ. Entomol., 111: 645-652 (2018a)). Headspace volatiles were collected from 10 g bread dough ball placed in a screened specimen cup (130 ml) by using 2.41 closed volatile collection chambers (ARS, Inc., Gainesville, Fla.) with one air inlet adapter (7 mm ID) on the top and an outlet adapter (7 mm ID) on the bottom wall. Clean air from a filtering and delivery system (ARS Inc., Gainesville, Fla.) was pushed into the chamber at 0.7 L/min through the top inlet port, and volatiles from the dough were pushed out through volatile traps (activated charcoal adsorbent filters, ORBO™32-small, Supelco Inc., Bellefonte, Pa.) on the bottom of the chamber. An additional ORBO™ filter was used to ensure that no breakthrough occurred. For each sample of dough (2 dough samples total), adsorbent collections were made over a 2-day period at room temperature using the same volatile trap. Volatiles were eluted with 600 μl methylene chloride every 24 h from the filters of a given dough sample and combined across the total of the collecting days (from 2 dough samples). The combined extract was kept at −20° C. and subjected to as chromatography-electroantennographic detection (GC-EAD) and gas chromatography-mass spectrometry (GC-MS) analyses.
# Coupled Gas Chromatographic-Electroantennographic Detection (GC-EAD): Coupled GC-EAD analysis was performed as described previously (Cha, D. H., J. Chem. Ecol., 34: 1180-1189 (2008); Cha, D. H., et al., J. Chem. Ecol., 38: 1419-1431 (2012)) using a Hewlett Packard 5890 Series II gas chromatograph equipped with either a non-polar DB-5 ms capillary column (30 m×0.25 mm ID, 0.25 μm film thickness; Agilent Technologies, Wilmington, Del.) or polar DB-WAXetr capillary column (30 m×0.25 mm ID, 0.25 μm film thickness; Agilent Technologies, Wilmington, Del.) in the splitless mode with 1 min sampling time. The oven temperature was programmed at 40° C. for 5 min, then increased by 15° C./min to 250° C., and held for 5 min. Injector and detector temperatures were set at 250° C. Nitrogen gas was the carrier at a flow of 2 ml/min. The column effluent was split 1:1 in the oven via a “Y” glass splitter (Supelco). One arm of the splitter led to the flame ionization detector (FID) (250° C.) and the other to the heated EAD port (250° C.). Whole head preparations were made of individual flies, age 5-9 day, for GC-EAD analysis (Cha et al. 2012). The head was separated from the body and its antennae positioned between two gold wire electrodes immersed in saline filled (Drosophila ringer solution; 46 mmol NaCl, 182 mmol KCl, 3 mmol CaCl2, and 10 mmol Tris HCl at pH 7.2) micropipettes in an acrylic holder. The antennal holder was placed inside a humidified condenser and maintained at 5° C. The output signal from the antenna was amplified by a customized high input impedance DC amplifier and recorded on an HP 3390A integrator.
# Chemical Analysis: GC-MS was carried out with an Agilent 5975MS coupled with a Agilent 6890GC equipped with either a DB-5 ms capillary column (30 m×0.25 mm ID, 0.25 μm film thickness; Agilent Technologies, Wilmington, Del.) or DB-WAXetr capillary column (30 m×0.25 mm ID, 0.25 μm film thickness; Agilent Technologies, Wilmington, Del.). Helium was the carrier gas (1.0 ml/min constant flow). The GC temperature program was the same as used for the GC-EAD analyses. The MS transfer-line was held at 260° C., the MS source at 230° C., and the MS quad at 150° C. Mass spectra were taken in EI mode (at 70 eV) in the range from 40 m/z to 350 m/z with a scanning rate of 4.58 scan/s. GC-MS data were processed with the MDS-Chemstation software (Agilent Technologies). […]
row,SMILES,GC-EAD activity (antennal response)
1,CCCCCCCC(C)=O [2-nonanone],active
2,CC(=O)OCCC(C)C [isoamyl acetate],active
3,CCCCCCO [1-hexanol],active
4,"C=CC(O)CCCCC (stereo not drawn) [1-octen-3-ol, reference compound]",active
5,OCCc1ccccc1 [2-phenylethanol],active
6,CC(=O)C(C)O (stereo not drawn) [acetoin],active
7,CC(C)CCOC=O [isoamyl formate],active
8,CCCCCO [1-pentanol],active
9,CCC(C)COC(C)=O (stereo not drawn) [2-methylbutyl acetate],active
10,CCCCCCCC(=O)OCC [ethyl octanoate],active
11,CCCCCCCCC=O [nonanal],active
12,CCCCCOC(C)=O [pentyl acetate],active
13,CCCCCCCO [1-heptanol],active
14,"CC(O)C(C)O (stereo not drawn) [2,3-butanediol]",active

# System: SWD
# Test: not given
# Conditions: 1-octen-3-ol released near ripe raspberries; cited from earlier work
row,SMILES,effect on infestation of ripe raspberries by SWD
1,"C=CC(O)CCCCC (stereo not drawn) [1-octen-3-ol, reference compound]",significantly reduced infestation
